The NIST ThermoML archive (doi:10.1021/je050141m)
Numbers after ± are expanded uncertainties.

Settings: Liquid, Ebulliometric method (Recirculating still)

Q: What does the source list for `CCCCCCO` [hexan-1-ol]?
A: vapor or sublimation pressure (391.07 K): 25 ± 0.2 kPa; vapor or sublimation pressure (395.62 K): 30 ± 0.3 kPa; vapor or sublimation pressure (399.65 K): 35 ± 0.3 kPa; vapor or sublimation pressure (403.15 K): 40 ± 0.3 kPa; vapor or sublimation pressure (406.36 K): 45 ± 0.4 kPa; vapor or sublimation pressure (409.25 K): 50 ± 0.4 kPa; vapor or sublimation pressure (411.92 K): 55 ± 0.5 kPa; vapor or sublimation pressure (414.44 K): 60 ± 0.5 kPa; vapor or sublimation pressure (416.75 K): 65 ± 0.5 kPa; vapor or sublimation pressure (418.98 K): 70 ± 0.6 kPa; vapor or sublimation pressure (421.05 K): 75 ± 0.6 kPa; vapor or sublimation pressure (423.01 K): 80 ± 0.6 kPa; vapor or sublimation pressure (424.87 K): 85 ± 0.7 kPa; vapor or sublimation pressure (426.69 K): 90 ± 0.7 kPa

Q: For `CCCCCCOC(C)=O` [hexyl ethanoate], which “vapor or sublimation pressure” value (397.97 K) is on record?
A: The value was 25 ± 0.2 kPa.

Q: What about the “vapor or sublimation pressure” value (403.36 K) of the same compound?
A: Its value is 30 ± 0.2 kPa.

Q: And the “vapor or sublimation pressure” value (408.02 K)?
A: The value was 35 ± 0.3 kPa.

Q: And the “vapor or sublimation pressure” value (412.14 K)?
A: The value was 40 ± 0.3 kPa.

Q: What about the “vapor or sublimation pressure” value (416.02 K) of the same compound?
A: Its value is 45 ± 0.3 kPa.

Q: And the “vapor or sublimation pressure” value (419.47 K)?
A: Its value is 50 ± 0.4 kPa.

Q: What about the “vapor or sublimation pressure” value (422.59 K) of the same compound?
A: The value was 55 ± 0.4 kPa.

Q: What about the “vapor or sublimation pressure” value (425.57 K) of the same compound?
A: Its value is 60 ± 0.4 kPa.

Q: What about the “vapor or sublimation pressure” value (428.26 K) of the same compound?
A: Its value is 65 ± 0.5 kPa.

Q: And the “vapor or sublimation pressure” value (430.93 K)?
A: The value was 70 ± 0.5 kPa.

Q: What about the “vapor or sublimation pressure” value (433.38 K) of the same compound?
A: The value was 75 ± 0.5 kPa.

Q: And the “vapor or sublimation pressure” value (435.68 K)?
A: The value was 80 ± 0.6 kPa.

Q: And the “vapor or sublimation pressure” value (437.92 K)?
A: Its value is 85 ± 0.6 kPa.

Q: What about the “vapor or sublimation pressure” value (439.98 K) of the same compound?
A: Its value is 90 ± 0.6 kPa.
